US20220204497A1, “NOVEL COMPOUND HAVING ANTICANCER ACTIVITY, AND METHOD FOR PRODUCING SAME” (MEDICINAL BIOCONVERGENCE RESEARCH CENTER, priority 2019, published 2022)

System: A549 cells
Assay: Cell viability by MTT method in A549 cells
Assay type: cell-based
Parameters: concentration or dose not given beside the values
Conditions: 72 hours treatment

First: Cc1ccc(S(=O)(=O)N[C@@H](CC(C)C)C(=O)N2CCOCC2)cc1 [Compound 1, (S)-4-methyl-N-(4-methyl-1-morpholino-1-oxopentan-2-yl)benzenesulfonamide]
Second: Cc1ccc(S(=O)(=O)N[C@H](CC(C)C)C(=O)N2CCOCC2)cc1 [Compound 2, (R)-4-methyl-N-(4-methyl-1-morpholino-1-oxopentan-2-yl)benzenesulfonamide]
The “Cell Viability (% inhibition) (A549)” value of the first is lower: 17.79% for the first, 29.46% for the second.

Compared with Cc1ccc(S(=O)(=O)N[C@@H](CC(C)C)C(=O)Nc2ccc(N3CCCCC3)cc2)cc1 [Compound 7, (S)-4-methyl-2-(4-methylphenylsulfonamido)-N-(4-(piperidin-1-yl)phenyl)pentanamide], Cc1ccc(S(=O)(=O)N[C@@H](CC(C)C)C(=O)Nc2ccc(N3CCCC3)cc2)cc1 [Compound 17, (S)-4-methyl-2-(4-methylphenylsulfonamido)-N-(4-(pyrrolidin-1-yl)phenyl)pentanamide] is lower in “Cell Viability (% inhibition) (A549)” value: 23.48% for the first, 20.11% for the second.

Compared with Cc1ccc(S(=O)(=O)N[C@@H](CC(C)C)C(=O)Nc2ccc(N3CCC(C)CC3)cc2)cc1 [Compound 8, (S)-4-methyl-2-(4-methylphenylsulfonamido)-N-(4-(4-methylpiperidin-1-yl)phenyl) pentanamide], Cc1ccc(S(=O)(=O)N[C@@H](CC(C)C)C(=O)Nc2ccc(N3CCOCC3)cc2)cc1 [Compound 11, (S)-4-methyl-2-(4-methylphenylsulfonamido)-N-(4-morpholinophenyl)pentanamide] is lower in “Cell Viability (% inhibition) (A549)” value: 24.89% for the first, 23.76% for the second.

Going from Cc1ccc(S(=O)(=O)N[C@@H](CC(C)C)C(=O)Nc2ccc(N3CCS(=O)(=O)CC3)cc2)cc1 [Compound 15, (S)—N-(4-(1,1-dioxidothiomorpholino)phenyl)-4-methyl-2-(4-methylphenylsulfonamido)pentanamide] to CC(C)C[C@H](NS(=O)(=O)c1ccc(F)cc1)C(=O)Nc1ccc(N2CCOCC2)cc1 [Compound 21, (S)-2-(4-fluorophenylsulfonamido)-4-methyl-N-(4-morpholinophenyl)pentanamide], the “Cell Viability (% inhibition) (A549)” value rises from 4.86 ± 8.75% to 33.04%.

First: CC(C)C[C@H](NS(=O)(=O)c1ccc(Br)cc1)C(=O)Nc1ccc(N2CCOCC2)cc1 [Compound 22, (S)-2-(4-bromophenylsulfonamido)-4-methyl-N-(4-morpholinophenyl)pentanamide]
Second: COc1ccc(S(=O)(=O)N[C@@H](CC(C)C)C(=O)Nc2ccc(N3CCOCC3)cc2)cc1 [Compound 29, (S)-2-(4-methoxyphenylsulfonamido)-4-methyl-N-(4-morpholinophenyl)pentanamide]
The “Cell Viability (% inhibition) (A549)” value of the first is higher: 39.56 ± 5.42% for the first, 12.70 ± 4.95% for the second.

CC(C)C[C@H](NS(=O)(=O)c1ccccc1)C(=O)Nc1ccc(N2CCOCC2)cc1 [Compound 27, (S)-4-methyl-N-(4-morpholinophenyl)-2-(phenylsulfonamido)pentanamide] and CC(C)C[C@H](NS(=O)(=O)c1ccc(-c2ccccc2)cc1)C(=O)Nc1ccc(N2CCOCC2)cc1 [Compound 33, (S)-2-(biphenyl-4-ylsulfonamido)-4-methyl-N-(4-morpholinophenyl)pentanamide] are within error of each other in “Cell Viability (% inhibition) (A549)” value: 13.51 ± 9.40% for the first, 26.48 ± 3.66% for the second.

First: CC(C)C[C@H](NS(=O)(=O)c1ccc([N+](=O)[O-])cc1)C(=O)Nc1ccc(N2CCOCC2)cc1 [Compound 31, (S)-4-methyl-N-(4-morpholinophenyl)-2-(4-nitrophenylsulfonamido)pentanamide]
Second: Cc1ccc(S(=O)(=O)N[C@@H](C)C(=O)Nc2ccc(N3CCOCC3)cc2)cc1 [Compound 44, (S)-2-(4-methylphenylsulfonamido)-N-(4-morpholinophenyl)propanamide]
The “Cell Viability (% inhibition) (A549)” value of the first is higher: 33.24 ± 4.95% for the first, 14.05 ± 4.05% for the second.
